Experimental data published in patent publication US20170210778A1, “NOVEL COMPOUNDS” (The Provost, Fellows, Foundation Scholars, and the other …, priority 2014, published 2017).

Experiments:
[1] = molecular target: T1, murine NOD1 (Mus musculus, UniProt Q8BHB0); experiment: NOD1 functional agonist assay, 293mNOD1-SEAP reporter cells; type: cell-based; settings: 293mNOD1 cells, OD above 3*O.D of negative control
T1 construct: expressed in transfected cells; host or cells: HEK293
T1 sequence (Q8BHB0 1-953): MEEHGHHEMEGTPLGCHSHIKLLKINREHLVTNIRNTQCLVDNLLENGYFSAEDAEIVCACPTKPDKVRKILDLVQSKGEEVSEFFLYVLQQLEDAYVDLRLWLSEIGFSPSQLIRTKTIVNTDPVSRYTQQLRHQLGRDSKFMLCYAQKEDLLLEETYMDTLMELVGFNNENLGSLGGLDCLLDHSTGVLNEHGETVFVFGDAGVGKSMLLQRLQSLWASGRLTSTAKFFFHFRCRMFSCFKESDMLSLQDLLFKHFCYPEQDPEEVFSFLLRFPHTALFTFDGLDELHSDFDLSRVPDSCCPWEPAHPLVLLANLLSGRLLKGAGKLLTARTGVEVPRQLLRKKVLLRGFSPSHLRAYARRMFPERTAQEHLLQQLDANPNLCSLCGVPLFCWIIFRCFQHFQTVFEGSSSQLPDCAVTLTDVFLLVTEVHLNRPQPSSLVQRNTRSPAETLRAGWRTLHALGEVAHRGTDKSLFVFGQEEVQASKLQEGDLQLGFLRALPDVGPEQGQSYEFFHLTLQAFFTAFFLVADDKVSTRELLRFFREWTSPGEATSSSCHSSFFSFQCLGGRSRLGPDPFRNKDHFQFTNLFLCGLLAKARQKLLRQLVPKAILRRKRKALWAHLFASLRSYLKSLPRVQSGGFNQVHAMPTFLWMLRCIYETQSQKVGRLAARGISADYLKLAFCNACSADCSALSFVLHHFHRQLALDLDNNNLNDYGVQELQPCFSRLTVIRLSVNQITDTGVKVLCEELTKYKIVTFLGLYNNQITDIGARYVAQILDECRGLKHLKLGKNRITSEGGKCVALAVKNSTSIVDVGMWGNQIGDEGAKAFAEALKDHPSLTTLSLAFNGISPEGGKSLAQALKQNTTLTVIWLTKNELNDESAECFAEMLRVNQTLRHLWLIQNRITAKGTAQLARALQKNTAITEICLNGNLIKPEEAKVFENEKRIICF
Source text: (§1) HEK293 cells were stably transfected with plasmid for the overexpression of the NOD1 genes and a reporter plasmid expressing a secreted embryonic alkaline phosphatase (SEAP) gene under the control of a promoter inducible by the transcription factors NF-κB and AP-1. These cells are referred herein as 293hNOD1-SEAP (for cells overexpressing the human NOD1 gene) and 293mNOD1-SEAP (for cells overexpressing the murine NOD1 gene). Upon NOD1 stimulation, these cells induce the activation of NF-κB and AP-1 and subsequently the secretion of SEAP. The reporter protein is easily detectable and measurable when using QUANTI-Blue™ (InvivoGen, San Diego, Calif.), a medium that turns purple/blue in the presence of SEAP.
(§2) The biological activity of the compounds of the invention tested using 293hNOD1 and 293mNOD1 cells. SEAP expression was measured using the commercially available SEAP detection kit (HEK-Blue™ Detection, InvivoGen). The SEAP activity in cells was quantified using the microplate reader (FLUOStar OPTIMA, BMG laboratories), the absorbance values were read using filter with excitation at 620 nm and emission at 655 nm. The results provided in Table 2 were expressed as the concentration were a significant mean optical density (OD) can be observed (above 3*O.D of negative control). As a positive control, the NOD1 pathway was stimulated with commercially available iE-DAP (InvivoGen) and C12-iE-DAP (an acylated derivative of DAP; InvivoGen). As a negative control endotoxin-free water was used. Additionally, 293 cells expressing the SEAP gene but not the NOD1 gene were used as a control.

[2] = molecular target: T2, human NOD1 (Homo sapiens, UniProt Q9Y239); experiment: NOD1 functional agonist assay, 293hNOD1-SEAP reporter cells; type: cell-based; settings: 293hNOD1 cells, OD above 3*O.D of negative control
T2 construct: expressed in transfected cells; host or cells: HEK293
T2 sequence (Q9Y239 1-953): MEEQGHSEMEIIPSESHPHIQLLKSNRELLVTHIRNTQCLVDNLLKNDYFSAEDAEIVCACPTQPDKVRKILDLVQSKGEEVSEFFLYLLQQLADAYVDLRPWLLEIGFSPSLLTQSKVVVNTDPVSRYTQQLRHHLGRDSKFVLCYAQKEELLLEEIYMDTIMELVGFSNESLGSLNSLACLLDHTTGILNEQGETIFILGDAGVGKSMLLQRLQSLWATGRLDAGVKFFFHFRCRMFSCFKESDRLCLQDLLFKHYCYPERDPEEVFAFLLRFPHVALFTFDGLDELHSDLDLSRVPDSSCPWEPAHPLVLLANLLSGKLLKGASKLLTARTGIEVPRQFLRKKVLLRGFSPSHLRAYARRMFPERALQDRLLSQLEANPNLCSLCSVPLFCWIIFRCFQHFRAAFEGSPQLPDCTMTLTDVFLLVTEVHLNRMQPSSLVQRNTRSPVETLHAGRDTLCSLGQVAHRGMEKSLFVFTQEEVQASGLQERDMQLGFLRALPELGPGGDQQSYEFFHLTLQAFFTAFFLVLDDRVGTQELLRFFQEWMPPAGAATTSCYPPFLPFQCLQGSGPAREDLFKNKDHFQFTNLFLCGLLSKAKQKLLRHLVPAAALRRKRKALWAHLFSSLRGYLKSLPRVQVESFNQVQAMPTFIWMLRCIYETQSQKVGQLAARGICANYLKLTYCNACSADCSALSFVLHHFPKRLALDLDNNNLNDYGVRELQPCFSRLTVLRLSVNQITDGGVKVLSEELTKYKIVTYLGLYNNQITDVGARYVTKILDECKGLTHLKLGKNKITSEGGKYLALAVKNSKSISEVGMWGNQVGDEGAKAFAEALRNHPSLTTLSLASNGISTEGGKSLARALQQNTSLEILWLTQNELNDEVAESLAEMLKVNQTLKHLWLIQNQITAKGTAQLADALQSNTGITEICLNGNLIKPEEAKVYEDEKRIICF
Source text: as §1, §2

mNod1: concentration where a significant mean optical density (OD) can be observed [1] [µg/mL] | hNod1: concentration where a significant mean optical density (OD) can be observed [2] [µg/mL] | Compound
10 | 1 | N[C@H](CCC(=O)N[C@H](CSC[C@H](N)C(=O)O)C(=O)O)C(=O)O [Example 1, N^5-((S)-2-(((R)-2-amino-2-carboxyethyl)thio)-1-carboxyethyl)-D-glutamine]
1 | 0.1 | CCCCCCC(=O)N[C@H](CCC(=O)N[C@H](CSC[C@H](N)C(=O)O)C(=O)O)C(=O)O [Example 2, N^5-((S)-2-(((R)-2-amino-2-carboxyethyl)thio)-1-carboxyethyl)-N^2-heptanoyl-D-glutamine]
0.1 | 0.01 | CCCCCCCCCCCC(=O)N[C@H](CCC(=O)N[C@H](CSC[C@H](N)C(=O)O)C(=O)O)C(=O)O [Example 3, N^5-((S)-2-(((R)-2-amino-2-carboxyethyl)thio)-1-carboxyethyl)-N^2-dodecanoyl-D-glutamine]
0.001 | 0.0001 | CCCCCCCCCCCCCC(=O)N[C@H](CCC(=O)N[C@H](CSC[C@H](N)C(=O)O)C(=O)O)C(=O)O [Example 4, N^5-((S)-2-(((R)-2-amino-2-carboxyethyl)thio)-1-carboxyethyl)-N^2-tetradecanoyl-D-glutamine]
1 | 1 | C[C@H](N)C(=O)N[C@H](CCC(=O)N[C@H](CSC[C@H](N)C(=O)O)C(=O)O)C(=O)O [Example 5, N^2-(L-alanyl)-N^5-((S)-2-(((R)-2-amino-2-carboxyethyl)thio)-1-carboxyethyl)-D-glutamine]
1 | 0.1 | CC(C)C[C@H](N)C(=O)N[C@H](CCC(=O)N[C@H](CSC[C@H](N)C(=O)O)C(=O)O)C(=O)O [Example 6, N^2-(L-leucyl)-N^5-((S)-2-(((R)-2-amino-2-carboxyethyl)thio)-1-carboxyethyl)-D-glutamine]
1 | 0.1 | CC[C@@H](C)[C@H](N)C(=O)N[C@H](CCC(=O)N[C@H](CSC[C@H](N)C(=O)O)C(=O)O)C(=O)O [Example 7, N^2-(L-alloisoleucyl)-N^5-((S)-2-(((R)-2-amino-2-carboxyethyl)thio)-1-carboxyethyl)-D-glutamine]
1 | 0.1 | CC(C)[C@H](N)C(=O)N[C@H](CCC(=O)N[C@H](CSC[C@H](N)C(=O)O)C(=O)O)C(=O)O [Example 8, N^2-(L-valyl)-N^5-((S)-2-(((R)-2-amino-2-carboxyethyl)thio)-1-carboxyethyl)-D-glutamine]
10 | 10 | N[C@@H](CSC[C@@H](NC(=O)CC[C@@H](NC(=O)[C@@H](N)Cc1ccccc1)C(=O)O)C(=O)O)C(=O)O [Example 9, N^2-(L-phenylalanyl)-N^5-((S)-2-(((R)-2-amino-2-carboxyethyl)thio)-1-carboxyethyl)-D-glutamine]
0.1 | 0.001 | CCCCCCCCCCCCCC(=O)N[C@@H](CC(C)C)C(=O)N[C@H](CCC(=O)N[C@H](CSC[C@H](N)C(=O)O)C(=O)O)C(=O)O [Example 10, N^5-((S)-2-(((R)-2-amino-2-carboxyethyl)thio)-1-carboxyethyl)-N^2-(tetradecanoyl-L-leucyl)-D-glutamine]
